Read-outs that look alike come from different tables or passages of the source. Some results are limits rather than exact numbers.

For one data set, the system named is VSV-G pseudovirus. The data set is described as follows: microbe, parasite or virus in culture. Format: cell-based. As to conditions: TZM-bl, read-out: Viral neutralization IC50, VSV-G Pseudovirus.
Another data set relates to HIV-1AD8. Briefly: microbe, parasite or virus in culture. Format: cell-based. As to conditions: TZM-bl cells, tier-2 virus, average ± SD of at least three independent experiments, read-out: Viral neutralization IC50, HIV-1AD8.
Another data set relates to HIV-1CH58TF. The data set is described as follows: microbe, parasite or virus in culture. As to conditions: TZM-bl cells, average ± SD of at least three independent experiments, read-out: Viral neutralization IC50, HIV-1CH58TF. Format: cell-based.
The test system of data set [1] is HIV-1AD8-infected primary CD4+ T cells. Briefly: HIV+ plasma cell-surface staining of infected cells. Format: cell-based, human. As to conditions: 50µM compound; plasma 1:1000.
Data set [2] relates to HIV-1JRFL-infected primary CD4+ T cells. Briefly: Anti-CoRBS 17b mAb binding to infected cells (flow cytometry). Format: cell-based, human. Conditions: 50 µM CD4mc; p24+ population; MFI. (In flow cytometry, cells or beads pass a laser one at a time.)
Data set [3] has as its system HIV-1CH58TF-infected primary CD4+ T cells. The data set is described as follows: FACS-based ADCC assay with HIV+ plasma. Format: cell-based, human. As to conditions: 50µM compound; plasma 1/1000; effector/target 10:1.
Data set [4] shares this test system. Briefly: HIV+ plasma cell-surface staining of infected cells. Format: cell-based, human. As to conditions: 50µM compound; plasma 1:1000.
The subject of another data set is HIV-1JRFL. Format: cell-based. Conditions: TZM-bl cells; tier-2 virus; average ± SD of at least three independent experiments.
Another data set has as its target LMHT gp120CRF01_AE coree (Human immunodeficiency virus type 1, UniProt Q0ED31, DEL123-198/DEL305-311/DEL316-323/H375T/H60Y/I469M/K470R/N199G/N304G/N468D/P313S/Q104H/Q315S/T200G/V107I). Briefly: biochemical. Format: binding, HIV-1.
The test system of data set [5] is HIV-1CH58TF-infected primary CD4+ T cells. Briefly: Anti-CoRBS 17b mAb binding to infected cells (flow cytometry). Format: cell-based, human. Conditions: 50 µM CD4mc; p24+ population; MFI.
For data set [6], the system named is HIV-1JRFL-infected primary CD4+ T cells. Briefly: FACS-based ADCC assay with HIV+ plasma. Format: cell-based, human. As to conditions: 50µM compound; plasma 1/1000; effector/target 10:1.
For data set [7] the test system is unchanged. Briefly: HIV+ plasma cell-surface staining of infected cells. Format: cell-based, human. Conditions: 50µM compound; plasma 1:1000.
Data set [8] has as its system HIV-1AD8-infected primary CD4+ T cells. Briefly: FACS-based ADCC assay with HIV+ plasma. Format: cell-based, human. As to conditions: 50µM compound; plasma 1/1000; effector/target 10:1.
Where [9] appears, read: Human immunodeficiency virus 1, TZM-bl.

As to `CN1CCN(C(=O)N2C[C@H](CN)C[C@H](C(=O)Nc3ccc(Cl)c(F)c3)C2)CC1` [ZXC-I-090], the figures for the IC50 in the data set on VSV-G pseudovirus, with HIV-1AD8 (setting [9]) and in the data set on HIV-1CH58TF (setting [9]) were above 100 µM, above 100 µM and 2.63 ± 0.5 µM, respectively.
On to `CN1CCN(C(=O)N2CCC[C@H](C(=O)Nc3ccc(Cl)c(F)c3)C2)CC1` [TFH-I-070-A6], for which, in [1], the “HIV+ plasma binding (recognition of infected cells), HIV-1AD8” value (“HIV+ plasma binding … HIV-1AD8” for short) was “did”. The IC50 (commonly the point on the concentration scale where inhibition reaches its midpoint) in the data set with VSV-G pseudovirus was above 100 µM; in the data set on HIV-1AD8 (setting [9]), 9.59 ± 3.4 µM; in the data set on HIV-1CH58TF (setting [9]), 0.45 ± 0.09 µM. In addition, in data set [2], the “17b binding (exposure of the CoRBS), HIV-1JRFL-infected cells” value (“17b binding … HIV-1JRFL-infected cells” for short) is “successfully exposed the CoRBS”.
Turning to `CNCc1ccc2c(c1)C[C@H](CNC(=N)N)[C@H]2NC(=O)C(=O)Nc1ccc(Cl)c(F)c1` [BNM-III-170, reference compound], the “Susceptibility to ADCC mediated by HIV+ plasma, HIV-1CH58TF” value in data set [3] is “enhanced”. In addition, the IC50 in the data set on VSV-G pseudovirus is above 100 µM; in the data set on HIV-1AD8 (setting [9]), 3.75 µM; in the data set on HIV-1AD8, 3.75 ± 1.3 µM; in the data set with HIV-1CH58TF (setting [9]) it was 0.0336 µM; in the data set on HIV-1CH58TF, 0.033 ± 0.01 µM. For the same compound, in data set [4], the “HIV+ plasma binding (recognition of infected cells), HIV-1CH58TF” value is given as “enhanced the recognition”.
Turning to `NCCNC(=O)N1CCC[C@H](C(=O)Nc2ccc(Cl)c(F)c2)C1` [MCG-IV-210, reference compound], the “HIV+ plasma binding … HIV-1AD8” value in data set [1] is listed as “did not promote HIV+ plasma binding”. Further, the “Viral neutralization IC50, HIV-1JRFL” value in the data set on HIV-1JRFL is recorded as “unable to inhibit viral infection”. Besides, in [3], the “Susceptibility to ADCC mediated by HIV+ plasma, HIV-1CH58TF” value was “enhanced”. The IC50 is 0.969 µM at LMHT gp120CRF01_AE coree, above 100 µM with VSV-G pseudovirus, above 100 µM in the data set on HIV-1AD8 (setting [9]) and 3.46 ± 1.06 µM in the data set on HIV-1CH58TF (setting [9]). Moreover, the “17b binding … HIV-1JRFL-infected cells” value in data set [2] was “but not the tier-2 HIV-1JRFL”. Besides, the “HIV+ plasma binding (recognition of infected cells), HIV-1CH58TF” value in [4] is on record as “enhanced the recognition”. Further, the “17b binding (exposure of the CoRBS), HIV-1CH58TF-infected cells” value in [5] is recorded as “exposed the CoRBS”.
Turning to `CC1CN(C(=O)N2CCCC(C(=O)Nc3ccc(Cl)c(F)c3)C2)CC(C)N1C` (stereo not shown) [TFH-I-116-D1], in data set [1], the “HIV+ plasma binding … HIV-1AD8” value is listed as “did”. For the same compound, the “Susceptibility to ADCC mediated by HIV+ plasma, HIV-1JRFL” value in [6] was “not translated into enhanced ADCC”. Besides, the “HIV+ plasma binding (recognition of infected cells), HIV-1JRFL” value in data set [7] is on record as “recognized the infected cells”. The IC50 was above 100 µM in the data set with VSV-G pseudovirus, 4.8 µM with HIV-1AD8 (setting [9]) and 0.0655 µM in the data set on HIV-1CH58TF (setting [9]). In data set [2], the “17b binding … HIV-1JRFL-infected cells” value was “successfully exposed the CoRBS”. In addition, the “Susceptibility to ADCC mediated by HIV+ plasma, HIV-1AD8” value in data set [8] is on record as “translated into ADCC”.
Regarding `NCC(=O)N1CCN(C(=O)N2C[C@H](CO)C[C@H](C(=O)Nc3ccc(Cl)c(F)c3)C2)CC1` (racemic) [DL-I-101], the “HIV+ plasma binding … HIV-1AD8” value in data set [1] is recorded as “did”. Moreover, the IC50 against LMHT gp120CRF01_AE coree is 0.308 µM; in the data set on VSV-G pseudovirus, above 100 µM; in the data set with HIV-1AD8 (setting [9]), 10.2 ± 3.1 µM; in the data set on HIV-1CH58TF (setting [9]) it was 0.16 ± 0.03 µM. Besides, the “17b binding … HIV-1JRFL-infected cells” value in data set [2] is “successfully exposed the CoRBS”. For the same compound, the “Susceptibility to ADCC mediated by HIV+ plasma, HIV-1AD8” value in data set [8] is listed as “translated into ADCC”.
`O=C(O)CN1CCN(C(=O)N2C[C@H](CO)C[C@H](C(=O)Nc3ccc(Cl)c(F)c3)C2)CC1` (racemic) [DL-I-102]: the IC50 on LMHT gp120CRF01_AE coree is 0.561 µM; in the data set on VSV-G pseudovirus, above 100 µM; in the data set on HIV-1AD8 (setting [9]), 87 ± 39 µM; with HIV-1CH58TF (setting [9]), 0.66 ± 0.25 µM. For the same compound, the “17b binding … HIV-1JRFL-infected cells” value in data set [2] is reported as “successfully exposed the CoRBS”.
Take `C[C@@H]1CN(C(=O)N2C[C@H](CN)C[C@H](C(=O)Nc3ccc(Cl)c(F)c3)C2)C[C@H](C)N1C` [ZXC-I-092]: the IC50 in the data set on VSV-G pseudovirus is above 100 µM; with HIV-1AD8 (setting [9]), 34 ± 13.8 µM; with HIV-1CH58TF (setting [9]) it was 0.75 ± 0.12 µM. Further, in [2], the “17b binding … HIV-1JRFL-infected cells” value is “successfully exposed the CoRBS”.
